For data set [1], the system named is intracellular ROS production in LPS-stimulated RAW 264.7 macrophages. Put plainly: Intracellular ROS assay in LPS-stimulated RAW 264.7 macrophages (DCFH-DA). In kind it is cell-based, murine. As to conditions: Mus musculus, RAW264.7, LPS 1 μg/mL, 6 h, mean ± SD, n=3, read-out: Intracellular ROS Inhibition Rate (%). How it is done: Intracellular ROS assay: Intracellular ROS assay was performed according to the method reported previously. RAW 264.7, a murine macrophage cell line, was obtained from the Pharmacognosy Laboratory of Prof. Mian Zhang, China Pharmaceutical University. Cells were cultured in DMEM containing 10% fetal bovine serum, 100 U/mL penicillin and 100 U/mL streptomycin at 37 °C in a humidified atmosphere containing 5% CO2 and 95% air. The cells (1 × 10^5 cells/well) were pre-incubated in the 96-well plate for 12 h. Then, cells were cultured in normal medium as normal group, or 1 μg/mL LPS as control group, or 1 μg/mL LPS plus different concentration of compounds as test group. After the cells of each group were treated for 6 h, the medium was removed, and the cells were incubated with 50 μL 2,7-Dichlorofluorescein diacetate (DCFH-DA) (10 μM) for 20 min at 37 °C. After that, the cells were washed with PBS carefully three times to remove free DCFH-DA. The absorbance was determined at 525 nm using Thermo Scientific Varioskan Flash. Apocynin was used as the positive control. The inhibitory rate (%) was calculated according to the equation: Inhibition rate (%) = [1 − (B1 − B0)/(B2 − B0)] × 100 (2) B1 refers to the absorbance of […], B0 refers to the absorbance of normal group.

Data set [2] is described as follows: DPPH radical scavenging assay. Conditions: for DPPH radical scavenging rate: 30 min, absorbance 517 nm. How it is done: DPPH radical assay: DPPH radical scavenging assay was performed according to previous protocol with modifications. DPPH was dissolved in ethanol at the concentration of 200 µM. One hundred microliters of compounds (5, 10, 20, 30, 50 µM) were added to the 96-well plates, and evaded the light preservation for 30 min after addition 100 µL DPPH. Then the absorbance was measured at 517 nm using Thermo Scientific Varioskan Flash. Vitamin C was used as the positive control. The inhibitory effect was expressed as scavenging rate of alleviation and was calculated as follows: Scavenging rate (%) = [1 − (A1 − A2)/A0] × 100 (1) A1 refers to the absorbance with various concentrations of test compounds and DPPH, A2 refers to the absorbance with various concentrations of test compounds and ethanol, A0 refers to the absorbance with distilled water and DPPH.

For data set [3], the system named is NO production in LPS-stimulated RAW 264.7 macrophages. Put plainly: NO production in LPS-stimulated RAW 264.7 macrophages (Griess reaction). As to conditions: Mus musculus, RAW264.7; for inhibition at 3 µM / inhibition at 10 µM / inhibition at 30 µM / inhibition at 100 µM: LPS 1 μg/mL, 24 h, mean ± SD, n=3, read-out: NO Inhibition Rate (%); for IC50: LPS-induced RAW 264.7 macrophages, read-out: IC50 of NO production inhibition. In kind it is cell-based, murine. On the technique in general: Griess reagent forms a coloured azo dye with nitrite.

For another data set, the system named is RAW 264.7 macrophages. In kind it is cell-based, murine. As to conditions: mouse, 24 h, 100 µM. How it is done:
The MTT assay was used to evaluate the cell viability, as previously reported. RAW 264.7 macrophages were seeded at a density of 1 × 10^5 cells /mL in 96-well plates and cultured for 24 h with the test compound (100 µM) at 37 °C in a 5% CO2 incubator. Subsequently, 20 μL of MTT solution (5 mg/mL) was added to each well and incubated for 4 h at 37 °C and the resulted crystals were dissolved in DMSO. The optical density was measured at 490 nm using Thermo Scientific Varioskan Flash.

Each structure is given as a SMILES string. A value given as a limit tells only on which side of the number the result lay.

We go through 8 compounds from publication PMC6332173, “Diterpenoids from Saliva plebeia R. Br. and Their Antioxidant and Anti-Inflammatory Activities” (Molecules, 2015).

Usually inhibition stands for the change of the read-out against control, counted positive when it falls. On to `COc1cc(C(C)=O)ccc1O` [Apocynin, reference compound], for which, in data set [1], the inhibition at 100 µM is 92.9 ± 2.6%.

As a reminder, the IC50 is the concentration needed to halve the response being measured. Usually melting point stands for the temperature of the solid-liquid transition. Take `CC(C)C1CC2C(CO)(CC(O)C(O)C2(C)C)c2c(O)cc(O)cc21` [Compound 1, 1,2,3,4,4α,9,10,10α-octahydro-(4α-hydroxyymethyl)-1,1-dimethyl-9-(1-methylethyl)-(2S,3S,4αR,9R,10αS)-2,3,5,7-phenanthrenetertrol]: the melting point is 232 to 233 °C. For the same compound, the IC50 in data set [2] was found to be 29.6 µM. Besides, in data set [2] (5 µM compound), the “DPPH radical scavenging rate” value is on record as 16.6 ± 3.3%. Further, in data set [2] (10 µM compound), the “DPPH radical scavenging rate” value is reported as 21.0 ± 1.8%. In addition, in data set [2] (20 µM compound), the “DPPH radical scavenging rate” value is reported as 39.2 ± 4.1%. The “DPPH radical scavenging rate” value in data set [2] (30 µM compound) amounted to 53.4 ± 8.2%. Further, the “DPPH radical scavenging rate” value in data set [2] (50 µM compound) came out at 75.4 ± 6.8%. For the same compound, in data set [1], the inhibition at 10 µM is 24.6 ± 2.4%, the inhibition at 30 µM came to 56.1 ± 8.2% and the inhibition at 100 µM came out at 64.8 ± 5.2%. In data set [3], the inhibition at 3 µM turned out to be 18 ± 3.2%, the inhibition at 10 µM is 42.9 ± 2.5%, the inhibition at 30 µM was determined as 68.9 ± 5.2% and the inhibition at 100 µM amounted to 86.6 ± 4.9%. Besides, in data set [3], the IC50 was 18 µM. Further, the “Cell Viability (% vs. Control)” value in the data set on RAW 264.7 macrophages is 97.3 ± 4.2%.

`CC(C)c1cc2c(c(O)c1O)[C@@]13CCCC(C)(C)[C@@H]1C[C@@H]2OC3=O` [Compound 2, carnosol]: the IC50 in data set [2] came to 28.8 µM; in data set [3], 21.5 µM. In addition, the “DPPH radical scavenging rate” value in data set [2] (5 µM compound) amounted to 5.9 ± 1.6%; in data set [2] (10 µM compound), 15.4 ± 2.6%; in data set [2] (20 µM compound) it was 29.5 ± 1.9%; in data set [2] (30 µM compound), 59.3 ± 4.2%; in data set [2] (50 µM compound), 86.1 ± 3.3%. The inhibition at 10 µM is 29.5 ± 3.1% in data set [1] and 32 ± 4.8% in data set [3]. The inhibition at 30 µM stood at 53.2 ± 2% in data set [1] and 63.3 ± 5.3% in data set [3]. For the same compound, the inhibition at 100 µM in data set [1] was determined as 80.3 ± 1.3%; in data set [3], 103 ± 5.9%. For the same compound, the inhibition at 3 µM in data set [3] was 20.5 ± 2.6%. Moreover, the “Cell Viability (% vs. Control)” value in the data set on RAW 264.7 macrophages was determined as 110.5 ± 0.9%.

Regarding `CC(C)c1cc(O)c2c(c1O)[C@@H]1CC3C(C)(C)CCC[C@]23C(=O)O1` (stereo partly drawn) [Compound 3, isocarnosol], the IC50 in data set [2] was greater than 50 µM; in data set [3], 23.6 µM. In addition, the “DPPH radical scavenging rate” value amounted to 3.4 ± 2.3% in data set [2] (5 µM compound); 11.5 ± 2.4% in data set [2] (10 µM compound); 24.5 ± 1.2% in data set [2] (20 µM compound); 42.6 ± 6.0% in data set [2] (30 µM compound); 49.0 ± 1.1% in data set [2] (50 µM compound). Besides, the inhibition at 10 µM in data set [1] came to 13.5 ± 1.1%; in data set [3], 29.9 ± 5%. The inhibition at 30 µM amounted to 16 ± 1.9% in data set [1] and 59.4 ± 4.7% in data set [3]. The inhibition at 100 µM in data set [1] came to 22 ± 1.8%; in data set [3], 98.1 ± 6.5%. In addition, in data set [3], the inhibition at 3 µM came out at 18.8 ± 3%. Further, the “Cell Viability (% vs. Control)” value with RAW 264.7 macrophages is 106.7 ± 1.5%.

On to `CC(C)c1cc(C=O)c2c(c1O)OC(=O)C1C(C)(C)CCC[C@]21C=O` (stereo partly drawn) [Compound 4, saficinolide], for which the IC50 is greater than 50 µM in data set [2] and greater than 100 µM in data set [3]. Moreover, the “DPPH radical scavenging rate” value in data set [2] (5 µM compound) was 14.5 ± 2.9%; in data set [2] (10 µM compound), 15.2 ± 6.0%; in data set [2] (20 µM compound) it was 15.5 ± 1.3%; in data set [2] (30 µM compound), 7.0 ± 4.7%; in data set [2] (50 µM compound), 13.2 ± 1.5%. The values for the inhibition at 10 µM in data set [1] and in data set [3] were 8.1 ± 3.2% and 11.9 ± 5.8%, respectively. Further, the inhibition at 30 µM in data set [1] turned out to be 16.6 ± 4.4%; in data set [3], 15.8 ± 4.4%. Moreover, the inhibition at 100 µM came to 47.1 ± 6.1% in data set [1] and 28.7 ± 5.3% in data set [3]. Further, the inhibition at 3 µM in data set [3] is 6.3 ± 2.4%. Besides, the “Cell Viability (% vs. Control)” value with RAW 264.7 macrophages was 101.3 ± 5.0%.

Turning to `CC(C)c1cc2c(c(O)c1O)[C@]13CO[C@H]2C[C@H]1C(C)(C)C[C@H](O)C3` [Compound 5, 2,11,12-trihydroxy-7,20-epoxy-8,11,13-abietatriene], the IC50 in data set [2] is 20 µM; in data set [3] it was greater than 100 µM. Also, the “DPPH radical scavenging rate” value is given as 9.2 ± 5.8% in data set [2] (5 µM compound); 23.8 ± 6.6% in data set [2] (10 µM compound); 55.4 ± 2.7% in data set [2] (20 µM compound); 72.6 ± 5.7% in data set [2] (30 µM compound); 89.6 ± 1.3% in data set [2] (50 µM compound). Besides, the inhibition at 10 µM amounted to 13 ± 3.3% in data set [1] and 4.9 ± 7.3% in data set [3]. For the same compound, the inhibition at 30 µM in data set [1] was 51.8 ± 2.2%; in data set [3], 16.4 ± 5.4%. Besides, the values for the inhibition at 100 µM in data set [1] and in data set [3] were 91.3 ± 9.2% and 25.6 ± 4%, respectively. For the same compound, the inhibition at 3 µM in data set [3] was found to be 5.7 ± 3.8%. Moreover, the “Cell Viability (% vs. Control)” value with RAW 264.7 macrophages is given as 91.6 ± 2.3%.

`O=C1O[C@H]([C@@H](O)CO)C(O)=C1O` [Vit. C, Vitamin C, reference compound] came in with an IC50 in data set [2] of 26.5 µM. Besides, the “DPPH radical scavenging rate” value in data set [2] (5 µM compound) is 6.1 ± 4.4%; in data set [2] (10 µM compound), 21.6 ± 2.2%; in data set [2] (20 µM compound), 43.8 ± 2.6%; in data set [2] (30 µM compound), 57.6 ± 5.4%; in data set [2] (50 µM compound), 89.1 ± 2.2%.

On to `CC(C)Cc1ccc(C(C)C(=O)O)cc1` (stereo not drawn) [ibuprofen, reference compound], for which, in data set [3], the inhibition at 30 µM is 32.3 ± 4.2%.
